Measured values reported in US10770169B2, “Method of providing a treatment to a subject based on a dynamic pathway map” (THE REGENTS OF THE UNIVERSITY OF CALIFORNIA, priority 2010, dated 2020).

Assays:
[1] = test system: panel of 55 breast cancer cell lines; assay: Cell growth inhibition assay (Cell Titer Glo, 72 h, 9 doses; GI50, TGI, LC50); assay type: cell-based, human; settings: value is the negative log10 of mol/L
[2] = test system: luminal, basal, claudin-low and ERBB2AMP breast cancer cell lines; assay: Associations of clinically relevant subtypes and response (non-parametric ANOVA or t-test on GI50 ranks); assay type: cell-based, human
Method in brief: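 GI50 values were compared between cell-line subtype groups by non-parametric ANOVA or t-test on ranks. P-values from three test sets were combined and FDR-corrected. Significant three-group effects were followed by post-hoc comparison of each group against all others, and FDR p<0.20 counted as significant.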

**Q.** With `CCNCCCCNCCCCNCCCCNCCCCNCC=CCNCCCCNCCCCNCCCCNCCCCNCC.Cl.Cl.Cl.Cl.Cl.Cl.Cl.Cl.Cl.Cl` (stereo in doubt) [CGC-11144] as the molecule, how does the GI50 ([1]; 600MPE cell line, censored GI50 values) read?
**A.** The GI50 was 6.49.

**Q.** What about the GI50 ([1]; AU565 cell line, censored GI50 values) of the same molecule?
**A.** Its GI50 is 6.31.

**Q.** And the GI50 ([1]; BT20 cell line, censored GI50 values)?
**A.** Its GI50 is 6.52.

**Q.** And the GI50 ([1]; BT474 cell line, censored GI50 values)?
**A.** The GI50 was 6.02.

**Q.** What about the GI50 ([1]; BT483 cell line, censored GI50 values) of the same molecule?
**A.** The GI50 was 6.25.

**Q.** What about the GI50 ([1]; BT549 cell line, censored GI50 values) of the same molecule?
**A.** The GI50 was 6.65.

**Q.** And the GI50 ([1]; CAMA1 cell line, censored GI50 values)?
**A.** The GI50 was 6.40.

**Q.** And the GI50 ([1]; HCC38 cell line, censored GI50 values)?
**A.** Its GI50 is 6.81.

**Q.** What about the GI50 ([1]; HCC70 cell line, censored GI50 values) of the same molecule?
**A.** Its GI50 is 6.55.

**Q.** What about the GI50 ([1]; HCC202 cell line, censored GI50 values) of the same molecule?
**A.** The GI50 was 6.26.

**Q.** And the GI50 ([1]; HCC1143 cell line, censored GI50 values)?
**A.** The GI50 was 6.88.

**Q.** And the GI50 ([1]; HCC1187 cell line, censored GI50 values)?
**A.** The GI50 was 6.02.

**Q.** And the GI50 ([1]; HCC1395 cell line, censored GI50 values)?
**A.** The GI50 was 6.20.

**Q.** What about the GI50 ([1]; HCC1419 cell line, censored GI50 values) of the same molecule?
**A.** The GI50 was 6.30.

**Q.** What about the GI50 ([1]; HCC1428 cell line, censored GI50 values) of the same molecule?
**A.** Its GI50 is 6.33.

**Q.** What about the GI50 ([1]; HCC1500 cell line, censored GI50 values) of the same molecule?
**A.** Its GI50 is 6.65.

**Q.** And the GI50 ([1]; HCC1806 cell line, censored GI50 values)?
**A.** Its GI50 is 6.71.

**Q.** What about the GI50 ([1]; HCC1937 cell line, censored GI50 values) of the same molecule?
**A.** The GI50 was 6.76.

**Q.** And the GI50 ([1]; HCC1954 cell line, censored GI50 values)?
**A.** The GI50 was 6.56.

**Q.** And the GI50 ([1]; HCC2185 cell line, censored GI50 values)?
**A.** Its GI50 is 6.60.

**Q.** What about the GI50 ([1]; HCC3153 cell line, censored GI50 values) of the same molecule?
**A.** Its GI50 is 6.72.

**Q.** And the GI50 ([1]; LY2 cell line, censored GI50 values)?
**A.** Its GI50 is 5.18.

**Q.** What about the GI50 ([1]; MCF7 cell line, censored GI50 values) of the same molecule?
**A.** Its GI50 is 6.33.

**Q.** What about the GI50 ([1]; MDAMB134VI cell line, censored GI50 values) of the same molecule?
**A.** The GI50 was 6.38.

**Q.** And the GI50 ([1]; MDAMB157 cell line, censored GI50 values)?
**A.** Its GI50 is 6.96.

**Q.** And the GI50 ([1]; MDAMB175VII cell line, censored GI50 values)?
**A.** Its GI50 is 6.75.

**Q.** What about the GI50 ([1]; MDAMB231 cell line, censored GI50 values) of the same molecule?
**A.** The GI50 was 4.66.

**Q.** What about the GI50 ([1]; MDAMB361 cell line, censored GI50 values) of the same molecule?
**A.** The GI50 was 5.78.

**Q.** What about the GI50 ([1]; MDAMB415 cell line, censored GI50 values) of the same molecule?
**A.** The GI50 was 6.78.

**Q.** And the GI50 ([1]; MDAMB436 cell line, censored GI50 values)?
**A.** The GI50 was 6.06.

**Q.** What about the GI50 ([1]; MDAMB453 cell line, censored GI50 values) of the same molecule?
**A.** Its GI50 is 6.28.

**Q.** What about the GI50 ([1]; MDAMB468 cell line, censored GI50 values) of the same molecule?
**A.** The GI50 was 6.17.

**Q.** What about the GI50 ([1]; SKBR3 cell line, censored GI50 values) of the same molecule?
**A.** Its GI50 is 5.30.

**Q.** And the GI50 ([1]; SUM149PT cell line, censored GI50 values)?
**A.** The GI50 was 6.53.

**Q.** And the GI50 ([1]; SUM159PT cell line, censored GI50 values)?
**A.** The GI50 was 6.60.

**Q.** And the GI50 ([1]; SUM185PE cell line, censored GI50 values)?
**A.** The GI50 was 6.68.

**Q.** What about the GI50 ([1]; SUM225CWN cell line, censored GI50 values) of the same molecule?
**A.** Its GI50 is 5.45.

**Q.** What about the GI50 ([1]; SUM1315MO2 cell line, censored GI50 values) of the same molecule?
**A.** The GI50 was 5.69.

**Q.** What about the GI50 ([1]; cell line 600MPE) of the same molecule?
**A.** Its GI50 is 6.49.

**Q.** What about the GI50 ([1]; cell line AU565) of the same molecule?
**A.** The GI50 was 6.31.

**Q.** What about the GI50 ([1]; cell line BT20) of the same molecule?
**A.** The GI50 was 6.52.

**Q.** And the GI50 ([1]; cell line BT474)?
**A.** Its GI50 is 6.02.

**Q.** And the GI50 ([1]; cell line BT483)?
**A.** The GI50 was 6.25.

**Q.** What about the GI50 ([1]; cell line BT549) of the same molecule?
**A.** Its GI50 is 6.65.

**Q.** And the GI50 ([1]; cell line CAMA1)?
**A.** The GI50 was 6.40.

**Q.** What about the GI50 ([1]; cell line HCC38) of the same molecule?
**A.** Its GI50 is 6.81.

**Q.** What about the GI50 ([1]; cell line HCC70) of the same molecule?
**A.** Its GI50 is 6.55.

**Q.** What about the GI50 ([1]; cell line HCC202) of the same molecule?
**A.** The GI50 was 6.26.

**Q.** What about the GI50 ([1]; cell line HCC1143) of the same molecule?
**A.** The GI50 was 6.88.

**Q.** What about the GI50 ([1]; cell line HCC1187) of the same molecule?
**A.** The GI50 was 6.02.

**Q.** And the GI50 ([1]; cell line HCC1395)?
**A.** Its GI50 is 6.20.

**Q.** And the GI50 ([1]; cell line HCC1419)?
**A.** Its GI50 is 6.30.

**Q.** And the GI50 ([1]; cell line HCC1428)?
**A.** Its GI50 is 6.33.

**Q.** And the GI50 ([1]; cell line HCC1500)?
**A.** Its GI50 is 6.65.

**Q.** What about the GI50 ([1]; cell line HCC1806) of the same molecule?
**A.** Its GI50 is 6.71.

**Q.** What about the GI50 ([1]; cell line HCC1937) of the same molecule?
**A.** The GI50 was 6.76.

**Q.** And the GI50 ([1]; cell line HCC1954)?
**A.** Its GI50 is 6.56.

**Q.** What about the GI50 ([1]; cell line HCC2185) of the same molecule?
**A.** The GI50 was 6.60.

**Q.** What about the GI50 ([1]; cell line HCC3153) of the same molecule?
**A.** Its GI50 is 6.72.

**Q.** And the GI50 ([1]; cell line LY2)?
**A.** The GI50 was 5.18.

**Q.** And the GI50 ([1]; cell line MCF7)?
**A.** The GI50 was 6.33.

**Q.** And the GI50 ([1]; cell line MDAMB134V)?
**A.** Its GI50 is 6.38.

**Q.** And the GI50 ([1]; cell line MDAMB157)?
**A.** The GI50 was 6.96.

**Q.** What about the GI50 ([1]; cell line MDAMB175V) of the same molecule?
**A.** Its GI50 is 6.75.

**Q.** And the GI50 ([1]; cell line MDAMB231)?
**A.** The GI50 was 4.66.

**Q.** And the GI50 ([1]; cell line MDAMB361)?
**A.** The GI50 was 5.78.

**Q.** And the GI50 ([1]; cell line MDAMB415)?
**A.** Its GI50 is 6.78.

**Q.** What about the GI50 ([1]; cell line MDAMB436) of the same molecule?
**A.** Its GI50 is 6.06.

**Q.** What about the GI50 ([1]; cell line MDAMB453) of the same molecule?
**A.** Its GI50 is 6.28.

**Q.** What about the GI50 ([1]; cell line MDAMB468) of the same molecule?
**A.** The GI50 was 6.17.

**Q.** And the GI50 ([1]; cell line SKBR3)?
**A.** The GI50 was 5.30.

**Q.** And the GI50 ([1]; cell line SUM52PE)?
**A.** Its GI50 is 6.79.

**Q.** What about the GI50 ([1]; cell line SUM149PT) of the same molecule?
**A.** Its GI50 is 6.53.

**Q.** And the GI50 ([1]; cell line SUM159PT)?
**A.** Its GI50 is 6.60.

**Q.** What about the GI50 ([1]; cell line SUM185PE) of the same molecule?
**A.** Its GI50 is 6.68.

**Q.** And the GI50 ([1]; cell line SUM225CWN)?
**A.** Its GI50 is 5.45.

**Q.** And the GI50 ([1]; cell line SUM1315MO)?
**A.** The GI50 was 5.69.

**Q.** And the GI50 ([1]; cell line T47D)?
**A.** The GI50 was 6.96.

**Q.** And the GI50 ([1]; cell line UACC812)?
**A.** Its GI50 is 6.78.

**Q.** And the GI50 ([1]; cell line UACC893)?
**A.** Its GI50 is 6.60.

**Q.** What about the GI50 ([1]; cell line ZR751) of the same molecule?
**A.** Its GI50 is 6.48.

**Q.** And the “association of response with ERBB2 amplification” value [2]?
**A.** The value was “negatively associated with ERBB2 amplification”.

**Q.** What about the Subtype specificity ([2]; Table 6, most sensitive subtype, FDR p<0.20) of the same molecule?
**A.** Its Subtype specificity is “not ERBB2AMP”.
